Here are results for 14 compounds from patent US9255073B2, “1-benzyl-3-hydroxymethylindazole derivatives and use thereof in the treatment of diseases based on the expression of MCP-1, CX3CR1 and p40” (AZIENDE CHIM. RIUN. ANG. FRANC. A.C.R.A.F. S.p.A., priority 2008, dated 2016).

The test system of data set [1] is p40. As to the kind of experiment: Gene expression of p40 in LPS-stimulated MonoMac6 cells (real-time RT-PCR). Type of data set: cell-based, human. To be noted: MonoMac6, 1 h preincubation, LPS 100 ng/ml 4 h. The method, then:
The capacity of the compounds to inhibit the expression of p40 by lipopolysaccharide (LPS)-stimulated MonoMac6 cells was evaluated. The cells were placed in 96-well plates at a concentration of 50 000 cells/well. The compounds were tested at the maximum soluble concentration given in Table 4 (in the range 30-300 μM) and incubated for 1 hour. The cells were then stimulated with LPS (100 ng/ml) for 4 hours.
(§1) The total RNA was extracted from the cell pellet using the RNeasy mini kit (Qiagen), reverse-transcribed with the TaqMan Reverse transcription reagents synthesis kit (Applied Biosystems) and the cDNA obtained was used for the real-time PCR reaction. The amplification was obtained in 96-well plates using the ABI Prism 7000 sequence detection system (Applied Biosystems), by applying the following temperature profile: 50° C. for 2 minutes, 95° C. for 10 minutes and 45 cycles at 95° C. for 15 seconds and 60° C. for 1 minute. For the amplification, a set of primers and probe specific for human p40 was used (Applied Biosystems, RefSeq NM_002187.2). A set of primers and probe for β-actin was used in separate wells as an internal control of the samples for the purposes of normalization. Once the reaction had taken place, the fluorescence data were analysed using the ABI Prism 7000 SDS software, by calculating the threshold cycle (Ct) for each sample and subsequently performing a relative quantification via the ΔΔCt method.

The subject of data set [2] is MCP-1. The data set is described as follows: Production of MCP-1 protein by LPS-stimulated MonoMac6 cells (ELISA). Type of data set: cell-based. To be noted: Homo sapiens, MONO-MAC-6, MonoMac6, 1 h preincubation, LPS 100 ng/ml 20 h, ELISA of supernatant; for inhibition at 150 µM: 150 μM (maximum soluble concentration); for inhibition at 75 µM: 75 μM (maximum soluble concentration); for inhibition at 30 µM: 30 μM (maximum soluble concentration). The procedure: The capacity of the compounds to inhibit the expression of the protein MCP-1 by lipopolysaccharide (LPS)-stimulated MonoMac6 cells was evaluated. The cells were placed in 96-well plates at a concentration of 50 000 cells/well. The compounds were tested at the maximum soluble concentration given in Table 2 (in the range 30-300 μM) and incubated for 1 hour. The cells were then stimulated with LPS (100 ng/ml) for 20 hours.
The amount of MCP-1 produced was measured in the supernatants, suitably diluted with buffer, by means of an immunoenzymatic test (ELISA) using a commercial kit (ELISA MCP-1/JE, R&D Systems).

The test system of data set [3] is MCP-1. As to the kind of experiment: Gene expression of MCP-1 in LPS-stimulated MonoMac6 cells (real-time RT-PCR). To be noted: MonoMac6, 1 h preincubation, LPS 100 ng/ml 4 h. Format: cell-based, human. The method, then: The capacity of the compounds to inhibit the expression of MCP-1 by lipopolysaccharide (LPS)-stimulated MonoMac6 cells was evaluated. The cells were placed in 96-well plates at a concentration of 50 000 cells/well. The compounds were tested at the maximum soluble concentration given in Table 1 (in the range 30-300 μM) and incubated for 1 hour. The cells were then stimulated with LPS (100 ng/ml) for 4 hours.
as §1, with “MCP-1” for “p40”, “NM_002982.3).” for “NM_002187.2).”

Data set [4] concerns CX3CR1. The data set is described as follows: Gene expression of CX3CR1 in LPS-stimulated MonoMac6 cells (real-time RT-PCR). Format: cell-based, human. To be noted: MonoMac6, 1 h preincubation, LPS 100 ng/ml 20 h. The procedure: The capacity of the compounds to inhibit the expression of CX3CR1 by lipopolysaccharide (LPS)-stimulated MonoMac6 cells was evaluated. The cells were placed in 96-well plates at a concentration of 50 000 cells/well. The compounds were tested at the maximum soluble concentration given in Table 3 (in the range 30-300 μM) and incubated for 1 hour. The cells were then stimulated with LPS (100 ng/ml) for 20 hours.
as §1, with “CX3CR1” for “p40”, “NM_001337.3).” for “NM_002187.2).”
(In qPCR the cycle at which signal appears reflects the starting amount.)

The mark [5] stands for this setting: 150 μM (maximum soluble concentration).
[6] abbreviates: 30 μM (maximum soluble concentration).
Where [7] appears, read: 300 μM (maximum soluble concentration).

Structures can show the parent of a compound that is named as a salt.

By inhibition is commonly meant the drop in the measured response relative to a control, in per cent. A lower inhibition goes with little suppression. Regarding `OCc1nn(Cc2ccccc2)c2ccccc12` [Compound 1, 1-benzyl-3-hydroxymethyl-indazole], the “% inhibition of p40 expression (mRNA)” value in data set [1] (setting [5]) worked out at 32%. This compound showed an inhibition at 150 µM in data set [2] of 54%. Also, the “% inhibition of MCP-1 expression (mRNA)” value in data set [3] (setting [5]) came out at 30%. Besides, the “% inhibition of CX3CR1 expression (mRNA)” value in data set [4] (setting [5]) amounted to 72%.

One may read the melting point as the temperature of the solid-liquid transition. For the compound `COc1ccc(Cn2nc(CO)c3ccccc32)cc1` [Compound 2, [1-(4-methoxybenzyl)-1H-indazol-3-yl]methanol], the melting point was in the range of 95 to 97 °C.

In data set [2], `OCc1nn(Cc2ccc(Cl)cc2)c2ccccc12` [Compound 4, [1-(4-chlorobenzyl)-1H-indazol-3-yl]methanol] came in with an inhibition at 75 µM of 85%.

Compound `OCc1nn(Cc2ccc(Cl)cc2Cl)c2ccccc12` [Compound 6, [1-(2,4-dichlorobenzyl)-1H-indazol-3-yl]methanol] registered an inhibition at 30 µM in data set [2] of 54%.

Take `Cc1cc(Cl)ccc1Cn1nc(CO)c2ccccc21` [Compound 8, [1-(4-chloro-2-methylbenzyl)-1H-indazol-3-yl]methanol]: the inhibition at 30 µM in data set [2] was found to be 75%.

`COc1ccc2c(c1)c(CO)nn2Cc1ccccc1` [Compound 9, (1-benzyl-5-methoxy-1H-indazol-3-yl)methanol] registered a melting point of 97 to 98 °C.

Turning to `Cc1cc(Cl)ccc1Cn1nc(C(C)(C)O)c2ccccc21` [Compound 10, 2-[1-(4-chloro-2-methylbenzyl)-1H-indazol-3-yl]propan-2-ol], the melting point lay in the range of 72 to 74 °C. Besides, the “% inhibition of p40 expression (mRNA)” value in data set [1] (setting [6]) was 65%. In data set [2], this compound returned an inhibition at 30 µM of 81%. The “% inhibition of MCP-1 expression (mRNA)” value in data set [3] (setting [6]) is listed as 72%. Further, the “% inhibition of CX3CR1 expression (mRNA)” value in data set [4] (setting [6]) was 89%.

`CC(C)(O)c1nn(Cc2ccc(Cl)cc2Cl)c2ccccc12` [Compound 11, 2-[1-(2,4-dichlorobenzyl)-1H-indazol-3-yl]propan-2-ol] came in with an inhibition at 30 µM in data set [2] of 88%.

Turning to `Cc1cc(Cl)ccc1Cn1nc(C(C)O)c2ccccc21` (centres unmarked) [Compound 12, 1-[1-(4-chloro-2-methylbenzyl)-1H-indazol-3-yl]ethanol], 30 µM produced 76% inhibition in data set [2].

Turning to `OCCOCc1nn(Cc2ccccc2)c2ccccc12` [Compound 13, 2-[(1-benzyl-1H-indazol-3-yl)methoxy]ethanol], the melting point lay in the range of 67 to 69 °C. In data set [2] (setting [7]), the inhibition at 300 µM turned out to be 78%. In addition, the “% inhibition of MCP-1 expression (mRNA)” value in data set [3] (setting [7]) is on record as 55%. Also, the “% inhibition of CX3CR1 expression (mRNA)” value in data set [4] (setting [7]) was determined as 90%.

On to `CN(C)CCOCc1nn(Cc2ccccc2)c2ccccc12.Cl` [Compound 14, 2-[(1-benzyl-1H-indazol-3-yl)methoxy]-N,N-dimethylethanamine hydrochloride], for which 150 µM produced 64% inhibition in data set [2]. For the same compound, the “% inhibition of MCP-1 expression (mRNA)” value in data set [3] (setting [5]) turned out to be 52%. Moreover, the “% inhibition of CX3CR1 expression (mRNA)” value in data set [4] (setting [5]) amounted to 96%.

In turn, `CN(C)CCCOCc1nn(Cc2ccccc2)c2ccccc12` [Compound 15, 3-[(1-benzyl-1H-indazol-3-yl)methoxy]-N,N-dimethylpropan-1-amine hydrochloride] showed an inhibition at 75 µM in data set [2] of 44%.

As to `CC(C)(CO)OCc1nn(Cc2ccccc2)c2ccccc12` [Compound 17, 2-[(1-benzyl-1H-indazol-3-yl)methoxy]-2-methylpropan-1-ol], the melting point was in the range of 52 to 53 °C. In addition, the “% inhibition of p40 expression (mRNA)” value in data set [1] (setting [5]) was 37%. This compound also registered an inhibition at 150 µM in data set [2] of 82%. The “% inhibition of MCP-1 expression (mRNA)” value in data set [3] (setting [5]) turned out to be 53%. In data set [4] (setting [5]), the “% inhibition of CX3CR1 expression (mRNA)” value is listed as 88%.

As to `CC(C)(CN1CCOCC1)OCc1nn(Cc2ccccc2)c2ccccc12.O=C(O)/C=C\C(=O)O` [Compound 18, 1-benzyl-3-[(1,1-dimethyl-2-morpholin-4-ylethoxy)methyl]-1H-indazole maleate], the melting point was 87 to 88 °C. In addition, in data set [1] (75 μM (maximum soluble concentration)), the “% inhibition of p40 expression (mRNA)” value is 39%. In data set [2], this compound gave an inhibition at 75 µM of 85%.
